Values joined by “and” are separate entries in the source; they are usually repeats but may differ in a detail not shown here. Identical values can stand only once. Like-named read-outs stand apart in the source and are kept apart here.
Key:
[1] = Miscibility of diamines and triamines with water in presence and absence of CO2; format: physicochemical; conditions: 5:1 w/w water and liquid additive; for Miscibility with water, After addition of CO2: CO2 90 min; for Miscibility with water, Before addition of CO2: room temperature
Method: A 5:1 w/w solution of water and the liquid additive (total volume 5 m) were mixed together in a glass vial at room temperature. Whether the mixture formed one or two liquid phases was visually observed. Then CO2 was bubbled through the mixture via a single narrow gauge steel needle at a flow rate of ˜5 ml min^−1 for 90 min. Whether the mixture formed one or two phases was visually observed.

[2] = Expulsion of THF from water and removal of additive from the aqueous phase; format: physicochemical; conditions: for additive removed from the aqueous phase after N2 treatment: separated aqueous phase, N2 90 minutes, 60° C.
Method: 1.50 g H2O, 1.50 g THF, and 0.30 g N,N,N′N′-tetraethyl-1,4-diaminobutane (TEDAB) were mixed together in a graduated cylinder to generate a single phase solution. […] A small stir bar was added to the solution and the cylinder was capped with a rubber septa. The following procedure was run in triplicate with a new sample (of the same contents shown above) each time.
A long, narrow gauge needle was inserted through the septa into the solution. […] CO2 was bubbled through the solution a flow rate of about 5 ml/min for 45 minutes with stirring until a 2nd phase creams out on top of the aqueous phase. The CO2 bubbling was stopped and the needles withdrawn. The cylinder was immersed in a hot water bath for several seconds to facilitate the separation of the liquid phases. Both phases were clear and yellow in colour.
The organic phase was decanted off giving a mass of 1.253 g (density=0.84 g/m).
A 39.1 mg sample of the organic phase was placed in an NMR tube with deuterated acetonitrile and 50.2 mg ethyl acetate to act as an internal standard. A 66.2 mg sample of the aqueous phase was placed in a 2nd NMR tube with deuterated acetonitrile with 22.3 mg ethyl acetate to act as an internal standard. A ^1H NMR spectra was acquired and knowing the corresponding amount of ethyl acetate in each sample the resulting amounts of THF in the aqueous sample and additive in the organic sample can be calculated. Knowing the mass, volume, and density of each layer, the total amount of THF or additive in a respective layer can be calculated.
1.943 g (1.90 ml) of the aqueous phase was returned to the same graduated cylinder. The needles and septa were put back into the cylinder and the cylinder was immersed in a 60° C., water bath. N2 was introduced in the same fashion as CO2 preformed previously and the N2 was bubbled through the solution for 90 minutes where a deep yellow organic phase creams out of the aqueous phase.
A 37.9 mg sample of the aqueous phase was taken up in an NMR tube with deuterated acetonitrile and 41.5 mg ethyl acetate to act as an internal standard.

[3] = Salting out THF from water using secondary amine additives, 1H NMR; format: physicochemical; conditions: 1.60 molal, 1:1 w/w THF:water, 30 minutes CO2
Method: N-tert-Butylethanolamine and N-ter-butymethylamine were investigated as additives for switchable ionic strength solutions. […] The volumes of each phase were recorded. […] The recombining of the phases when N-tert-butymethylamine was used as an additive was not successful at 30 min but was achieved by 2 h at a higher Ar flow rate of 15 mL/min. THF was added afterwards to replace the amount of THF being evaporated during the procedure.

[4] = Reversible protonation of amine additives in H2O monitored by conductivity; format: physicochemical
Method: 1:1 w/w H2O and THEED was used because a 1:1 v/v solution was too viscous to pour accurately. A trigger gas chosen from CO2, air or nitrogen was bubbled at identical flow rates through the solution via a narrow gauge steel tube and the conductivity of the solution was measured periodically using a Jenway 470 Conductivity Meter (Bibby Scientific, NJ, US) having a cell constant of 1.02 cm^−1.
The deprotonation reactions of the ionic solutions of additives in water were monitored in a similar manner, and the conductivity plot is shown in FIG. 8.
1:1 v/v solutions of the various additives and distilled, deionised water were prepared in six dram glass vials and transferred to a fritted glass apparatus which acted as a reaction vessel. The fritted glass apparatus consisted of a long narrow glass tube leading to a fine glass frit having a diameter of approximately 4 cm. The other end of the glass frit was connected to a cylindrical glass tube which held the solution of the additive during contacting with the trigger gas. This apparatus allowed a multiple source of trigger gas bubbles to contact the solution, compared to the single point source of Example 5.
A trigger gas chosen from CO2, air or nitrogen was bubbled through the solution via the glass frit at a flow rate of 110 ml min^−1 as measured by a J&W Scientific ADM 2000 Intelligent Flowmeter (CA, USA). For each conductivity measurement, the solution was transferred back to a six dram vial, cooled to 298 K and measured in triplicate. Conductivity measurements were performed using a Jenway 470 Conductivity Meter (Bibby Scientific, NJ, US) having a cell constant of 1.02 cm^−1.

[5] = Separation of THF from aqueous phase and retention of additive on switching with CO2, by 1H NMR; format: physicochemical
Method: (§1) The volumes of each phase were recorded.
The graduated cylinders were capped with rubber septa. […] A second narrow gauge steel tube was provided to vent the gaseous phase.
as §1

[6] = Zeta potential of suspended clay fines in switchable water; format: physicochemical; conditions: Kaolinite
Method: (§2) Clay fines were weighed and placed into individual vials (0.025 g, Ward's Natural Science Establishment). Kaolinite and montmorilonite were used as received, but as illite day was ground into a powder using a motar and pestle. Solutions containing additives were made with deionized water (18.2 MΩ/cm, Millipore) and 10 ml was added to the clay fines. A suspension was created using a vortex mixer and subsequently dispensed into a folded capillary cell. The zeta potential was measured using a Malvern Zetasizer instrument. The errors reported on the zeta potential values were the standard deviations of the zeta potential peaks measured.
(§3) Unless specified, all carbon dioxide treatments were conducted with the aqueous solutions prior to addition to day fines. For applicable measurements, ultra pure carbon dioxide (Supercritical CO2 Chromatographic Grade, Paxair) was bubbled through the solutions using a syringe.
Another experiment was performed in which CO2 was bubbled through a 1 mM aqueous solution of TMDAB that already contained clay fines (a method referred to as “switching in situ”).

[7] = as above; format: physicochemical
Method: as §2, §3

[8] = Solvent switching of diamidine/water system, 1H NMR; format: physicochemical; conditions: 0.80 molal, 30 minutes CO2
Method: The diamidine was investigated as additive for switchable ionic strength solutions. […] The volumes of each phase were recorded.

[9] = Degree of protonation/deprotonation of amine additives in D2O by 1H NMR; conditions: 0.1 M in D2O; for degree of protonation by CO2: room temperature
Method: In order to establish the chemical shifts of the protonated bases, molar equivalents of several strong acids, including HCl and HNO3, were added to separate solutions of the amines dissolved in D2O. ^1H NMR spectra were acquired on a Bruker AV-400 NMR spectrometer at 400.3 MHz for three replicate solutions of each amine. An average value of each chemical shift for each protonated base was calculated along with standard deviations. […] The ^1H NMR chemical shifts of the unprotonated amines were also measured.
The amine was dissolved in D2O in an NMR tube and sealed with a rubber septa. The spectrum was then acquired. Subsequently, two narrow gauge steel needles were inserted and gas was gently bubbled through one of them into the solution at approximately 4-5 bubbles per second. The second needle served as a vent for the gaseous phase.
Firstly CO2 was bubbled through the solution for the required length of time and then the spectrum was re-acquired. This process was repeated. The % protonation of the amine was determined from the observed chemical shifts by determining the amount of movement of the peaks from the normal position for the unprotonated amine towards the position expected for the fully protonated amine.
Nitrogen gas was flushed through the solution at 75° C.
In order to establish the chemical shifts of the protonated bases, molar equivalents of several strong acids, including HCl and HNO3, were added to separate solutions of the tetraamine dissolved in D2O. ^1H NMR spectra were acquired on a Bruker AV-400 NMR spectrometer at 400.3 MHz for three replicate solutions of the amine. An average value of each chemical shift for each protonated base was calculated along with standard deviations. […] The ^1H NMR chemical shifts of the unprotonated amine were also measured. […]

[10] = 0.80 molal
Method: The methylated spermine was investigated as additive for switchable ionic strength solutions. To measure the extent of THF being forced out of an aqueous phase by an increase in ionic strength, and the amounts of amine, which remained in the aqueous phase, 1:1 w/w solutions of THF and water were prepared in graduated cylinders. The appropriate mass of amine additive to result in a 0.80 molal solution was added and the cylinders were capped with rubber septa. […] The volumes of each phase were recorded. Aliquots of the non-aqueous and aqueous layers were taken and dissolved in d3-acetonitrile in NMR tubes. A known amount of ethyl acetate was added to each NMR tube as an internal standard. ^1H NMR spectra were acquired and through integration of the ethyl acetate standard, a concentration of THF or additive was calculated and scaled up to reflect the total volume of the aqueous or non-aqueous phase giving a percentage of the compound being forced out or retained. Then argon was bubbled through the solution while heating to 50° C. until the two phases recombined (15 to 60 min). The whole switching process (30 min CO2, sample take, then another 30 min of Ar) was repeated.

[11] = 1:1 v/v additive:water, 25° C., glass frit
[12] = 1:1 v/v, N2 at 80° C., glass frit
[13] = 0.80 molal additive, 1:1 w/w THF:H2O, 30 min CO2, in aqueous phase

Structure (SMILES): CN(C)Cc1cc(CN(C)C)cc(CN(C)C)c1 [1,3,5-C6H3(CH2NMe2)3, N,N,N′,N′,N″,N″-1,3,5-benzenetrimethanamine]
- Miscibility with water, After addition of CO2 [1]: miscible
- Miscibility with water, Before addition of CO2 [1]: miscible

Structure (SMILES): CCCN(CC)CCCCN(CC)CCC [PrEtNCH2CH2CH2CH2NPrEt, N,N′-diethyl-N,N′-dipropyl-1,4-diaminobutane]
- Miscibility with water, After addition of CO2 [1]: miscible
- Miscibility with water, Before addition of CO2 [1]: immiscible
- additive removed from the aqueous phase after N2 treatment [2]: 81%

Structure (SMILES): CNC(C)(C)C [N-tert-butymethylamine]
- Additive retained in H2O [3]: 99.75 ± 0.04%

Structure (SMILES): CN(C)CCCCN(C)C [TMDAB, N, N, N′, N′-tetramethyl-1,4-diaminobutane]
- reduction of conductivity ([4]; 1:1 v/v H2O:amine, 90 minutes, 80° C., N2 through a glass frit): approximately 95%
- rate of conductivity increase on CO2 bubbling [4, 11]: highest rate of conductivity increase
- rate of conductivity decrease on N2 flushing [4, 12]: highest
- % Additive Retained [5, 13]: 99.2 ± 0.4%
- % Additive Retained ([5]; THF:H2O:Additive 3:3:1 w/w/w): 87.1 ± 2.1%
- % Additive Retained ([5]; THF:H2O:Additive 5:5:1 w/w/w): 99.8% and 99.6 ± 0.1%
- % Additive Retained ([5]; THF:H2O:Additive 10:10:1 w/w/w): 99.4 ± 0.1%
- % Additive Retained ([5]; THF:H2O:Additive 15:15:1 w/w/w): 98.4 ± 0.4%

Structure (SMILES): CC(C)(C)NCCO [N-tert-butylethanolamine]
- Additive retained in H2O [3]: 99.84 ± 0.04%

Structure (SMILES): CC(O)CN(CCCN(C)C)CCCN(C)C (stereo not drawn) [DMAPAP]
- conductivity on CO2 bubbling [4, 11]: lower conductivities than TMDAB
- % Additive Retained [5, 13]: 98.8 ± 0.4%
- % Additive Retained ([5]; THF:H2O:Additive 3:3:1 w/w/w): 87.1 ± 7.3%
- % Additive Retained ([5]; THF:H2O:Additive 5:5:1 w/w/w): 98.4 ± 0.4%
- % Additive Retained ([5]; THF:H2O:Additive 10:10:1 w/w/w): 96.0 ± 0.8%
- % Additive Retained ([5]; THF:H2O:Additive 15:15:1 w/w/w): 94.4 ± 1.1%
- Zeta Potential ([6]; 0.8 molal additive): −24.3 ± 2.29 mV
- Zeta Potential ([6]; 0.8 molal additive + 1 h CO2): −3.99 mV
- Zeta Potential ([7]; Illite, 0.8 molal additive): −19.1 ± 3.92 mV
- Zeta Potential ([7]; Illite, 0.8 molal additive + 1 h CO2): −1.87 mV
- Zeta Potential ([7]; Montmorillonite, 0.8 molal additive): −16.8 ± 4.64 mV
- Zeta Potential ([7]; Montmorillonite, 0.8 molal additive + 1 h CO2): −2.99 mV

Structure (SMILES): C/C(=N\CCCC/N=C(\C)N(C)C)N(C)C [DIAC, N,N-(butane-1,4-diyl)bis(N,N-dimethylacetimidamide)]
- additive retained in the aqueous phase [8]: 99.5%

Structure (SMILES): OCCN(CCO)CCN(CCO)CCO [THEED, N, N, N′, N′-tetrakis(2-hydroxyethyl) ethylenediamine]
- degree of deprotonation ([9]; N2 bubbling at 75° C., 2 hours (120 minutes)): 98%
- degree of protonation by CO2 ([9]; by 10 minutes): 49%

Structure (SMILES): CCCN(CCC)CCCCN(CCC)CCC [Pr2NCH2CH2CH2CH2NPr2, N,N,N′,N′-tetrapropyl-1,4-diaminobutane]
- Miscibility with water, After addition of CO2 [1]: immiscible
- Miscibility with water, Before addition of CO2 [1]: immiscible

Structure (SMILES): CCN(CC)CCCCN(CC)CC [TEDAB, N, N, N′, N′-tetraethyl-1,4-diaminobutane]
- Miscibility with water, After addition of CO2 [1]: miscible
- Miscibility with water, Before addition of CO2 [1]: immiscible
- additive residing in the aqueous phase after CO2 treatment ([2]; 1.50 g H2O, 1.50 g THF, 0.30 g additive, CO2 45 minutes): 91.1±3.7%
- additive removed from the aqueous phase after N2 treatment [2]: 49.3±6.3%

Structure (SMILES): CN(C)CCN(C)CCN(C)CCN(C)C [HMTETA, 1,1,4,7,10,10-hexamethyl triethylenetetramine]
- conductivity on CO2 bubbling [4, 11]: lower conductivities than TMDAB
- conductivity of ionic form after 20 minutes of N2 [4, 12]: close to zero
- % Additive Retained [5, 13]: 99.3 ± 0.4%
- % Additive Retained ([5]; THF:H2O:Additive 3:3:1 w/w/w): 95.6 ± 1.5%
- % Additive Retained ([5]; THF:H2O:Additive 5:5:1 w/w/w): 98.4 ± 1.2%
- % Additive Retained ([5]; THF:H2O:Additive 10:10:1 w/w/w): 98.0 ± 1.0%
- % Additive Retained ([5]; THF:H2O:Additive 15:15:1 w/w/w): 98.2 ± 0.3%

Structure (SMILES): CN(C)CCCN(C)CCCCN(C)CCCN(C)C [MeSpe, N^1,N^1′-(butane-1,4-diyl)bis(N^1,N^2,N^3-trimethylpropane-1,3-diamine)]
- degree of protonation by CO2 [9]: 93%
- Additive retained in THF ([10]; 30 min CO2, run 1): 99.85%
- Additive retained in THF ([10]; 30 min CO2, run 2): 99.79%

Structure (SMILES): CN(C)CC1CC(CN(C)C)CC(CN(C)C)C1 (stereo not drawn) [1,3,5-cycloC6H9(CH2NMe2)3, 1,1′,1″-(cyclohexane-1,3,5-triyl)tris(N,N,-dimethylmethanamine)]
- Miscibility with water, After addition of CO2 [1]: miscible
- Miscibility with water, Before addition of CO2 [1]: immiscible
